Measured values: patent publication US20050158321A1, “Treatment of rheumatoid arthritis with galectin-3 antagonists” (Entelos, Inc., priority 2003, published 2005)

Legend:
[1] = tested on: peripheral blood monocytes from healthy donors and rheumatoid arthritis patients; experiment: Monocyte chemotaxis assay (96-well chemotaxis plates); assay type: cell-based, human; details: for migration of monocytes in combination with galectin-3: FIG. 14B, 14C
Description: Peripheral blood mononuclear cells (PBMCs) were isolated from 6 healthy volunteer donors and 6 rheumatoid arthritis (RA) patients following informed consent and in accordance with protocols approved by the AMC Medical Ethics committee. Donor blood was diluted with cold PBS and PBMCs isolated by centrifugation over Ficoll. The PBMC layer was recovered and washed twice with PBS. Cells were counted, and monocytes isolated using a Dynal monocytes negative isolation kit as per the manufacturer's instructions. Monocytes were resuspended at 2×10^6 cells/ml in RPMI medium containing 0.5% fetal calf serum.
Chemotaxis assays were performed using 96-well disposable chemotaxis plates (Neuroprobe, 8 μm diameter pore size). Wells were preincubated for 1 hour at 37° C. with medium alone (RPMI containing 0.5% fetal calf serum), murine anti-human galectin-3 antibody B2C10 (0.1, 1 or 3 μg/ml) or lactose (10 mM). Lactose is a non-specific inhibitor of galectin-3. Purified recombinant human galectin-3 (1, 10 or 100 nM) was also included in the preincubation step. 5×10^4 monocytes obtained from healthy donors were added to the top of the filter in triplicate wells and cells allowed to migrate for 90 minutes at 37° C. The filter was then washed with PBS, and adhering non-migrating cells removed from the top of the filter by wiping. Migrating cells within the filter Were visualized by staining with crystal violet solution and washing with water. Following air-drying overnight, a computer digital imaging analyzer was used to capture 20 high-powered (400× magnification) fields encompassing the complete transwell filter, and migrating cells counted manually. FIG. 12 provides the relative amount migration (chemotaxis) in the presence of varying levels of galectin-3 and inhibitors of galectin-3 activity (B2C10 and lactose).
In a second experiment, wells were preincubated for 1 hour at 37° C. with medium alone (RPMI containing 0.5% fetal calf serum), murine anti-human galectin-3 antibody B2C10 (0.1, 1 or 3 μg/ml) or lactose (10 mM). Lactose is a non-specific inhibitor of galectin-3. Purified recombinant human galectin-3 (1, 10 or 100 nM) was also included in the preincubation step. 5×10^4 monocytes obtained from rheumatoid arthritis patients were added to the top of the filter in triplicate wells and cells allowed to migrate for 90 minutes at 37° C. The filter was then processed as described above and migrating cells were counted manually. […]
Monocytes from 6 rheumatoid arthritis patient were stimulated with 6 different synovial fluids and monocyte chemotaxis was measured as described above in the presence of different concentrations of galectin-3 blocking antibody. […]

[2] = tested on: rheumatoid arthritis; details: methotrexate treatment, known effect; cited from earlier work
[3] = tested on: arthritis induced by monoclonal antibodies raised against type II collagen, plus lipopolysaccharide; experiment: Inflammation, Collagen Arthritis, mAb in Mice (hind paw volume); assay type: in vivo, BALB/c mice
Description: Galectin-3 Ab was evaluated for possible anti-inflammatory activity in BALB/c mice with arthritis induced by monoclonal antibodies (mAb) raised against type II Collagen, plus lipoplysaccharide. Galectin-3 Ab (1, 0.5 and 0.25 mg/mouse×3) was administered intraperitoneally once daily for 3 consecutive days starting on day 3. Volumes of both hind paws were measured on days 5, 7, 10, 14 and 17 and the sum of both hind paw volumes was calulated. A 30% percent or more reduction (−30%) relative to the vehicle-treated group indicates significant.
Galectin-3 Ab, B2C10 from Pharmingen, was dissolved in distilled water. Test substance at 1, 0.5 and 0.25 mg/mouse and vehicle were each administered intraperitoneally once daily for 3 consecutive days starting on day 3. The dosing volume was 0.2 ml/mouse for the test compound or 10 ml/kg (PO) for indomethacin. All treatments are summarized below:
Collagen Arthritis, mAb Groups of 7 BALB/c strain mice, 6-7 weeks of age, were used for the induction of arthritis by monoclonal antibodies (mAbs) raised against type II collagen, plus lipopolysaccharide (LPS). A combination of 4 different mAbs (D8, F10, DI-2G and A2) totaling 4 mg/mouse was administered to the animals intravenously on day 0, followed by intravenous challenge with […] of LPS 72 hours later (day3). From one hour after LPS injection, Galectin-3 Ab (1, 0.5 and 0.25 mg/mouse) and vehicle were each administered intraperitoneally once daily for 3 consecutive days starting on day 3. Whereas, indomethacin which served as the positive control was administered orally (3 mg/kg) once daily for 3 consecutive days at the same time schedule as test compound. For each animal, volumes of both hind paws were measured using a plethysmometer with water cell (12 mm diameter) on Days 0, 5, 7, 10, 14 and 17. Percent inhibition of increase in volume was calculated by the following formula: Inhibition (%): [1−(Tn−T0)/(Cn−C0)]×100% • Where: • C0 (Cn): volume of day 0 (day n) in vehicle control • T0 (Tn): volume of day 0 (day n) in test compound-treated group.
Reduction of edema in the hind paws by 30% or more (^3 30%) is considered significant. In addition, body weight was documented during the testing period of day 0, 5, 7, 10, 14 and 17 in each animal percentage of body weight of each compound group at time points were calculated referring to the vehicle control group at each measurement day as 100%.

In the case of “MCP-1: Monocyte Chemotactic Protein-1, chemotactic cytokine”, the “migration of monocytes in combination with galectin-3” value ([1]; single healthy donor) is reported as “induce migration”.
With “SDF-1: Stromal cell-Derived Factor-1, chemotactic cytokine” the “migration of monocytes in combination with galectin-3” value ([1]; single healthy donor) was “induce migration”.
For `CN(Cc1cnc2nc(N)nc(N)c2n1)c1ccc(C(=O)N[C@@H](CCC(=O)O)C(=O)O)cc1` [Methotrexate, methotrexate], the “decrease of synovial cell density” value [2] is given as “approximately 30%”, the “decrease of the concentration of IL-6 in synovial tissue” value [2] is given as 93% and the “decrease of the rate of cartilage degradation” value [2] is given as “approximately 15%”.
With “Galectin-3: purified recombinant human galectin-3” the “induction of chemotactic activity, alone” value ([1]; healthy donor or RA peripheral blood monocytes, 1, 10 or 100 nM) was “does not reproducibly induce chemotactic activity” and the “monocyte chemotaxis in the presence of 1 ng/ml fMLP” value ([1]; single healthy donor, FIG. 14A) was “increases monocyte chemotaxis in a concentration dependent manner”.
For `COc1ccc2c(c1)c(CC(=O)O)c(C)n2C(=O)c1ccc(Cl)cc1` [Indomethacin, indomethacin], the “(%) Reduction of Edema vs. Vehicle Control” value (shortened to “(%) Reduction”) ([3]; Day 5, PO 3 mg/kg × 3, parenthesis = significant) was “(94) %”, the “(%) Reduction” value ([3]; Day 5, PO 3 mg/kg × 3, parenthesis = significant, listed as indomethacin) was 94% and the “(%) Reduction” value ([3]; Day 7, PO 3 mg/kg × 3, parenthesis = significant) was “(70) %”. For the same compound, the “(%) Reduction” value ([3]; Day 7, PO 3 mg/kg × 3, parenthesis = significant, listed as indomethacin) was 70%, the “(%) Reduction” value ([3]; Day 10, PO 3 mg/kg × 3, parenthesis = significant) was “(85) %” and the “(%) Reduction” value ([3]; Day 10, PO 3 mg/kg × 3, parenthesis = significant, listed as indomethacin) was 85%. The “(%) Reduction” value ([3]; Day 14, PO 3 mg/kg × 3, parenthesis = significant) was “(85) %”, the “(%) Reduction” value ([3]; Day 14, PO 3 mg/kg × 3, parenthesis = significant, listed as indomethacin) was 85% and the “(%) Reduction” value ([3]; Day 17, PO 3 mg/kg × 3, parenthesis = significant) was “(84) %”. For the same compound, the “(%) Reduction” value ([3]; Day 17, PO 3 mg/kg × 3, parenthesis = significant, listed as indomethacin) was 84%.
